Measurements: US9970935B2, “Uses of GLI1 in detecting tissue fibrosis” (THE BRIGHAM AND WOMEN'S HOSPITAL, INC., priority 2014, dated 2018)
“Also recorded” adds a separate entry of the source.

Assays:
UUO kidneys = experiment: Unilateral ureteral obstruction (UUO) kidney fibrosis model; format: in vivo, mouse
lung = conditions: in vivo; cited from earlier work
human colon cancer cells = conditions: cited from earlier work
10T1/2 cells [1] = experiment: Flow cytometric cell-cycle analysis of 10T1/2 cells; format: cell-based, mouse; conditions: for cell-cycle distribution after siRNA knockdown: siRNA 5 nM vs scrambled siRNA
10T1/2 cells [2] = experiment: Western blot of whole cell-lysate from 10T1/2 cells treated with darinaparsin; format: cell-based, mouse; conditions: darinaparsin 0.5 μM, 72 hours
Text: All cell-lines used within this study were freshly ordered from ATCC and routinely checked for mycoplasma contamination in the inventors' laboratory. 10T1/2 cells (ATCC) and cultured in Basal Medium Eagle (BME, GIBCO; LIFE TECHNOLOGIES) supplemented with 10% fetal bovine serum (FBS), penicillin and streptomycin and 2 mmol/L glutamine (GIBCO). Sonic hedgehog conditioned media was produced from supernatant of confluent Cos7 cells stably transfected with pcDNA3-N-Shh or pcDNA3 control plasmid. For Western blot experiments cells were grown on 10 cm dishes, serum starved in 0.5% FBS for 12 hours and then incubated with darinaparsin (0.5 μM) or vehicle with either Shh preconditioned medium or Cos7 control media (5× i.e., 2 ml preconditioned media in 8 ml BMW 0.5% FBS) for 72 hours.
Kidney tissue was snap frozen in liquid nitrogen and stored at −80° C. immediately after mice were killed. Tissue samples were homogenized in lysis buffer containing 10 mM HEPES, pH 7.4, 0.32M sucrose, 2 mM EDTA, 1 mM DTT, 1 mM PMSF and 1 protease inhibitor tablet per 10 ml of lysis buffer (ROCHE Cat. No. 11836153001). Samples were sonicated and protein concentration was determined by the Bradford Assay using BIO-RAD Protein Assay Dye (BIORAD, Cat. No. 500-0006). 10-40 μg of protein from lysates was loaded on a 7.5 or 10% polyacrylamide gel and separated by SDS electrophoresis. Proteins were transferred to a IMMOBILON membrane (MILLIPORE) blocked in 5% milk in PBST, probed overnight at 4° C. with the primary antibodies: mouse anti-αSMA at 1:4000 (SIGMA, Cat. #A2547), rabbit anti-fibronectin at 1:4000 (ABCAM, #ab23750), rabbit anti-p21 at 1:200 (SANTA CRUZ BIOTECHNOLOGIES, #sc-471), rabbit anti-phospho-retinoblastoma(72) at 1:1000 (CELL SIGNALING #9307S, Ser780), rat anti-Gli1 at 1:1000 (R&D Systems #MAB3324), goat anti-Gli2 at 1:500 (R&D Systems #AF3635), rabbit anti-Cyclin Eat 1:200 (SANTA CRUZ #sc-481), rabbit anti-Cyclin A at 1:200 (SANTA CRUZ BIOTECHNOLOGIES #sc-751), rabbit anti-HA-Tag at 1:5000 (CELL SIGNALING #3724), mouse anti-c-myc (DSHB, Iowa, 9E 10) and rabbit anti-GAPDH at 1:4000 (BETHYL LABORATORIES, #A300-641A). Following incubation with primary antibody blots were washed probed with respective horseradish-peroxidase conjugated secondary antibodies at 1:5000 (DAKO, Cat. No. P0447, P0448, P0450) for 1 hour at room temperature and then visualized using the Western Lightning ECL kit from PERKINELMER (#NEL100001EA). Quantification of western bands was performed using ImageJ (NIH).

Gli2 = biological target: T1, Gli2 (Homo sapiens, UniProt P10070); experiment: Gli2 darinaparsin binding assay (GST agarose bead pull-down); conditions: 293T cells; for binding to Gli2 (pull-down of myc-tagged Gli2 with GST beads): 0.5 μM darinaparsin or vehicle
T1 construct: 293T cells were transfected with full length Gli2-myc and treated with darinaparsin (DAR) or vehicle (VEH); host or cells: Human 293T/17 (HEK 293T/17, ATCC)
Description: Human 293T/17 (HEK 293T/17, freshly ordered from ATCC) were grown in a 10 cm cell-culture dish until 80% confluent and transfected with pCS2-MT Gli2 FL kindly provided by Dr. Roessler (49) (ADDGENE Plasmid 17648: pCS2-MT GLI2 FL) using Lipofectamine 2000 (LIFE TECHNOLOGIES) according to the manufacturer instructions. 72 hours after transfection the cells were treated with 0.5 μM darinaparsin or vehicle in DMEM 10% FBS for 12 hours, thereafter cells were resuspended in cold (4° C.) PBS and washed twice with PBS. After centrifugation (1500 rpm, 5 minutes) 1 ml of IP-Lysis Buffer (THERMO SCIENTIFIC)+proteinase inhibtior (ROCHE, #1183617000T) was added to the cell pellet and the suspension was homogenized using an insulin syringe. After centrifugation of the protein-solution (15 min, 12000 rpm) the supernatant was transferred into a fresh tube, an aliquot of 100 μl was taken as input control (FIG. 24) and the solution was incubated with 50 μl GST-Agarose beads (PIERCE GST Agarose #20211, THERMO SCIENTIFIC) for 4 hours on a rotator at 4° C. Thereafter the bead-protein solution was centrifuged (5000 rpm, 3 min) and the supernatant was taken as outflow control (FIG. 24), the agarose beads were washed three times by adding 1 ml of the above mentioned IP-Lysis buffer containing proteinase inhibitors followed by vortexing and centrifugation (5000 rpm, 3 min), the supernatant after each centrifugation was discarded. After 3 washes, the GST beads were cooked at 96° C. for 7 minutes in 100 μl Laemmli buffer (BIO-RAD). All protein samples (input, outflow and the final GST bead purification solution) were analysed by western blot with an antibody against c-myc (mouse monoclonal, 9E 10, DSHB, Iowa) the membrane was stained with Ponceau-S (SIGMA) to show specificity (FIG. 6H).

kidney = conditions: mouse, in vivo
[3] = cited from earlier work
[4] = tested on: ATO resistant myeloma cell-lines; conditions: cited from earlier work
Gli1 and Gli2 = conditions: cited from earlier work
Gli1+ MSC = experiment: Myofibroblast differentiation of Gli1+ MSC in vitro upon TGF-β; format: cell-based, mouse; conditions: for αSMA expression: Gli1+ MSC from bone marrow / bone chips or heart
10T1/2 cells [5] = experiment: siRNA knockdown in 10T1/2 cells, mRNA and protein levels; format: cell-based, mouse
Description: For siRNA experiments cells were transfected with siRNA against Gli1 (LIFE SCIENCES, siRNA ID: s66723, Sequence 5'3' Sense: […] NO: 11), Antisense: […] NO: 12)), Gli2 (LIFE SCIENCES, siRNA ID: s66726, Sequence 5'3' Sense: […] NO: 13), Antisense: […] Transfection was performed with a final concentration of 5 nM of each siRNA according to the manufacturer instructions using LIPOFECTAMINE RNAiMAX transfection reagent (LIFE TECHNOLOGIES, #3778075). 72 hours after transfection cells were harvested for RNA or protein isolation. […] Kidney tissue or cell-pellets were harvested and immediately snap frozen in liquid nitrogen. RNA was extracted according to the manufacturer instructions using the RNeasy Mini Kit (QIAGEN) and 600 ng of total RNA was reverse transcribed with iScript (BIORAD). Quantitative polymerase chain reactions were carried out with iQ-SYBR Green supermix (BIORAD) and the BIORAD CFX96 Real Time System with the C1000 Touch Thermal Cycler. […] Glyceraldehyde-3-phosphate dehydrogenase (GAPDH) was used as a housekeeping gene. Data was analyzed using the 2-ΔΔct method. Kidney tissue was snap frozen in liquid nitrogen and stored at -80° C. immediately after mice were killed. Tissue samples were homogenized in lysis buffer containing 10 mM HEPES, pH 7.4, 0.32M sucrose, 2 mM EDTA, 1 mM DTT, 1 mM PMSF and 1 protease inhibitor tablet per 10 ml of lysis buffer (ROCHE Cat. No. 11836153001). Samples were sonicated and protein concentration was determined by the Bradford Assay using BIO-RAD Protein Assay Dye (BIORAD, Cat. No. 500-0006). 10-40 μg of protein from lysates was loaded on a 7.5 or 10% polyacrylamide gel and separated by SDS electrophoresis. […] Following incubation with primary antibody blots were washed probed with respective horseradish-peroxidase conjugated secondary antibodies at 1:5000 (DAKO, Cat. No. P0447, […]) for 1 hour at room temperature and then visualized using the Western Lightning ECL kit from PERKINELMER (#NEL100001EA). Quantification of western bands was performed using ImageJ (NIH).

[6] = GANT61 after UUO, UUO kidneys vs vehicle
[7] = GANT61 after UUO, listed as Gant61
[8] = siRNA 5 nM, 72 hours after transfection

T1 sequence (P10070 whole entry): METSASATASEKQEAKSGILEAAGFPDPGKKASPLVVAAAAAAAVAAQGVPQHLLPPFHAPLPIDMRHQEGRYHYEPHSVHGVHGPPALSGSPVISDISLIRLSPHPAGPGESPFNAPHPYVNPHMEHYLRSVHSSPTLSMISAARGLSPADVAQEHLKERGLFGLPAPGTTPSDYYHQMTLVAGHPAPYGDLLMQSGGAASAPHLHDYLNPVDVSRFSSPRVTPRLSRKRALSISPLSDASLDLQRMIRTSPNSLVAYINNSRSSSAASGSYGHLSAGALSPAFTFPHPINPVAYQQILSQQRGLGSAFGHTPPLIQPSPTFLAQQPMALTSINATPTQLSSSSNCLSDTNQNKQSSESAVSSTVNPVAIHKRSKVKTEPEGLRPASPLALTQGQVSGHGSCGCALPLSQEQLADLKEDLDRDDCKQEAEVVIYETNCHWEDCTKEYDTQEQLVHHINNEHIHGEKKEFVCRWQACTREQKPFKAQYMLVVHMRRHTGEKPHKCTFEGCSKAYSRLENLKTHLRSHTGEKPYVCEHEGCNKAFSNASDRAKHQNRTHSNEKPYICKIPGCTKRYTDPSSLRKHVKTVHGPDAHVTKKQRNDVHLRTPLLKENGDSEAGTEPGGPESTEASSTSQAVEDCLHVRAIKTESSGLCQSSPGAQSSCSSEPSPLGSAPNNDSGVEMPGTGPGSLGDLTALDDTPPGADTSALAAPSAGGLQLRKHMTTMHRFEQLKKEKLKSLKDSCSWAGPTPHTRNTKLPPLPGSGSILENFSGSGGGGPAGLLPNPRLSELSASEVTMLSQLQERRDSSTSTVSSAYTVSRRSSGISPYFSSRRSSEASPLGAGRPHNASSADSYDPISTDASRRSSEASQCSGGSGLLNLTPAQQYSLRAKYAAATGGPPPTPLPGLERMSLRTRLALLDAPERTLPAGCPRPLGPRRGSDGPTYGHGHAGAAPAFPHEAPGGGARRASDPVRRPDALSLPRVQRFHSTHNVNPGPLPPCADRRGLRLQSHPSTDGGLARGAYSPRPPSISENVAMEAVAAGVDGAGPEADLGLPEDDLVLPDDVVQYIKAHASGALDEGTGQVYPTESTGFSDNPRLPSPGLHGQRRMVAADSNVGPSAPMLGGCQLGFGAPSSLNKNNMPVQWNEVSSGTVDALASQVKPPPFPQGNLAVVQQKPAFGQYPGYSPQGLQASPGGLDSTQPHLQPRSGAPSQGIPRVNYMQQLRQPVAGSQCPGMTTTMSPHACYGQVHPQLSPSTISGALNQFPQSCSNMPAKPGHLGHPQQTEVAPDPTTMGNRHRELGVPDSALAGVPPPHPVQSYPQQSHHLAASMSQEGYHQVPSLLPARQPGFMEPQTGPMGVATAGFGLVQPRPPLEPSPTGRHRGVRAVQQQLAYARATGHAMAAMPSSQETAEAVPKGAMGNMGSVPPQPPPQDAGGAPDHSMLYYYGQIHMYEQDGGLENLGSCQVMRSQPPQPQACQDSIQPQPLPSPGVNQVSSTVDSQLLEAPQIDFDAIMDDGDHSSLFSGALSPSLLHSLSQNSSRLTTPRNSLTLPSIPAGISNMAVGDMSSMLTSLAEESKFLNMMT

Molecule: CN(C)c1ccccc1CN1CCCN(Cc2ccccc2N(C)C)C1c1ccncc1 [GANT61]
- interstitial fibrosis (scoring of trichrome stained sections) (UUO kidneys; GANT61 50 mg/kg s.c. at day 1, 2, 3, 5, 7 and 9 after UUO, vs vehicle, 50 mg/kg): significantly reduced; also recorded: significantly less fibrosis
- Gli1 protein level of UUO kidneys (UUO kidneys; GANT61 after UUO): significantly reduced
- Gli2 protein level of UUO kidneys (UUO kidneys; GANT61 after UUO): significantly reduced
- mRNA expression of hedgehog readout Gli1 (UUO kidneys; GANT61 after UUO): reduced
- mRNA expression of hedgehog readout Ptch1 (UUO kidneys; GANT61 after UUO): reduced
- expression of fibrotic readout Coiled (UUO kidneys; [6]): significantly reduced; also recorded: significant lower expression
- expression of fibrotic readout fibronectin (UUO kidneys; [6]): significantly reduced; also recorded: significant lower expression
- expression of fibrotic readout α-SMA (UUO kidneys; [6]): significantly reduced; also recorded: significant lower expression
- mRNA expression of hedgehog readout Gli1 (UUO kidneys; [7]): significant reduction
- mRNA expression of hedgehog readout Ptch1 (UUO kidneys; [7]): significant reduction
- fibrosis severity in bleomycin induced lung fibrosis (lung): decreased fibrosis severity
- cell cycle of human colon cancer cells (human colon cancer cells): induced a G0/G1 arrest
- p21 in human colon cancer cells (human colon cancer cells): upregulation

Molecule: CS(=O)(=O)c1ccc(C(=O)Nc2ccc(Cl)c(-c3ccccn3)c2)c(Cl)c1 [GDC-0449]
- fibrosis severity in bleomycin induced lung fibrosis (lung): did not show this effect

Molecule: C[As](C)SC[C@H](NC(=O)CC[C@H](N)C(=O)O)C(=O)NCC(=O)O [darinaparsin, S-dimethylarsino-glutathione]
- cell-cycle effect of darinaparsin upon Gli2 overexpression (10T1/2 cells [1]; 10T1/2 cells with retroviral full-length Gli2 vs control virus): rescued the cell-cycle effect; also recorded: rescues the cell cycle effect
- cell-cycle distribution of 10T1/2 cells (10T1/2 cells [1]; darinaparsin 0.5 μM vs vehicle, BrdU/7AAD flow cytometry): induces a G0/G1 cell cycle arrest
- Gli1 protein level (10T1/2 cells [2]): reduced
- Gli2 protein level (10T1/2 cells [2]): reduced
- p21 level (10T1/2 cells [2]): upregulation
- p-Rb level (10T1/2 cells [2]): decreased levels
- enrichment of other nonspecific proteins (Ponceau staining) (Gli2; 0.5 μM darinaparsin): did not result in enrichment
- binding to Gli2 (pull-down of myc-tagged Gli2 with GST beads) (Gli2): binds directly to Gli2
- binding to Gli2 (pull-down of myc-tagged Gli2 with GST beads) (Gli2; listed as DAR): able to pull down Gli2
- fibrotic readouts (UUO kidneys; mouse, in vivo): substantial reductions
- BUN levels (kidney): lower
- interstitial fibrosis (kidney): reduced
- systemic toxicity ([3]; compared to ATO): significantly lower
- tolerated maximum dose compared to ATO ([3]; higher than ATO): 50 fold
- side effect on fast cycling cell populations as the bone marrow or intestine ([3]; reported by Tian et al.): no significant side effect
- susceptibility of ATO resistant myeloma cell-lines [4]: susceptible

Molecule: Arsenic trioxide [ATO]
- antagonism of Gli1 and Gli2 (Gli1 and Gli2): antagonize both Gli1 and Gli2

Molecule: TGF-β
- αSMA expression (Gli1+ MSC): acquired expression
- αSMA expression (Gli1+ MSC; listed as TGFβ): robust upregulation
- induction of αSMA (Gli1+ MSC; bone marrow-derived Gli1+ MSC purified by FACS): 45 ×

Molecule: siRNA against Gli1: siRNA ID s66723, SEQ ID NO: 11 and 12 (chain 1 GCAGGUCUCCUAUCCUGAUTT; chain 2 NAUCAGGAUAGGAGACCUGCTG; chemistry not given here)
- cell-cycle distribution after siRNA knockdown (10T1/2 cells [1]): had no effect
- mRNA and protein levels of Gli1 (10T1/2 cells [5]; [8]): reduced

Molecule: siRNA directed against Gli2: siRNA ID s66726, SEQ ID NO: 13 and 14 (chain 1 GGAAAACUUCAACAAUACATT; chain 2 UGUAUUGUUGAAGUUUUCCAG; chemistry not given here)
- cell-cycle distribution after siRNA knockdown (10T1/2 cells [1]): G0/G1 arrest
- Gli2 expression (10T1/2 cells [5]; [8]): reduced
- mRNA and protein levels of Gli1 (10T1/2 cells [5]; [8]): reduced
- p21 level (10T1/2 cells [5]; siRNA knockdown, western blot): increased levels
- phosphorylated retinoblastoma (Ser780) level (10T1/2 cells [5]; siRNA knockdown, western blot): reduced levels
